From patent US5043332A, “Novel 11β-substituted -19-nor-steriods” (priority 1981, dated 1991)

How the values were obtained:
uterine endometrium = test: Progestomimetic activity, intrauterine, change in uterine endometrium (McPhail); format: in vivo, immature female rabbits; conditions: method of McPhail
Experimental: Groups of three immature female rabbits weighing about 1 kg were topically treated on the dorsal skin with 25 μg of estradiol in 10 μl of ethanol on day 1. On day 4 the product to be tested dissolved in 0.1 ml, of sesame oil containing 5% benzyl alcohol was introduced into a part of the uterus isolated between two ligatures. On the sixth day the animals were sacrificed, their uteruses retained and fixed in Bouin's solution for histological examination. Changes in the uterine endometrium were noted after the method of McPhail.

thymus = test: Thymolytic activity in the granuloma test; format: in vivo, Wistar rats; conditions: subcutaneous dose of 50 mg/kg
Experimental: (§1) The anti-inflammatory activity of the compound of Example 4 was determined by the classical granuloma test by a modification of the Meier et al test [Experientia, Vol. 6 (1950), p. 469] in which normal female Wistar rats weighing 100 to 110 g received an implantation of 2 pellets of cotton weighing 10 mg each under the thorax skin. The subcutaneous treatment which began immediately after the implantation for 2 days was 2 injections per day. 16 hours after the last injection, the animals were killed and the pellets together with the granuloma tissue formed were weighed in the fresh state and after 16 hours at 60° C. The weight of the granuloma was obtained by subtracting the initial weight of the cotton. The thymus was also removed and weighed to determine the thymolytic activity of the test product.

granuloma = test: Anti-inflammatory activity, classical granuloma test (cotton pellets); format: in vivo, Wistar rats; conditions: subcutaneous dose of 50 mg/kg
Experimental: II. Anti-inflammatory Activity
as §1

## CC#C[C@]1(O)CC[C@H]2[C@@H]3CCC4=CC(=O)CCC4=C3[C@@H](c3ccc(N(C)C)cc3)C[C@@]21C [Example 19, 11β-[4-(N,N-dimethylamino)-phenyl]-17α-(prop-1-ynyl)-Δ^4,9-estradiene-17β-ol-3-one]
Uterine endometrium; 30 μg/rabbit
  CHANGE IN THE ENDOMETRIUM: 0
Uterine endometrium; 500 μg/rabbit
  CHANGE IN THE ENDOMETRIUM: 0
thymus
  thymolytic activity: did not show any glucocorticoidal anti-inflammatory activity or thymolytic activity
granuloma
  glucocorticoidal anti-inflammatory activity: did not show any glucocorticoidal anti-inflammatory activity
